# Test results reported in patent EP1433485B1, “Alpha-MSH derived peptides for treating uro-genital conditions” (MSH Pharma, Inc., priority 1999, dated 2009).
# Bridge positions count the residues as written; N and C are the ends. Peptide text beside a SMILES is read from it. I, II: the chains in the order shown.
# Columns and labels:
# S. aureus (ATCC 29213) = assay: S. aureus viability estimated from colonies formed; type: cell-based, Staphylococcus aureus; conditions: Figure 1; two hours at 37°C; significant with peptide concentrations of 10^-12 to 10^-4 M
# Procedure: (§1) Cultures of S. aureus (ATCC 29213) were obtained from the collection of the Department of Microbiology, Ospedale Maggiore di Milano. […] Cells were then washed in cold distilled water and diluted with HBSS to a concentration of 100 organisms/ml. One-milliliter aliquots were dispensed on blood agar plates and incubated for 24 hours at 37°C. Viability of the microorganisms was estimated from the colonies formed. In another set of experiments, 500 units of urokinase, a S. aureus growth enhancer, were also incubated with the bacteria (10^5/100ml) for four hours at 37°C in a shaking water bath together with the peptides.
# C. albicans [1] = assay: killing of opsonized C. albicans by human neutrophils; type: cell-based, Candida albicans; conditions: Figure 6; 10^-12 to 10^-4 M; p<0.01
# Procedure: Venous blood (20 ml) from healthy volunteers was anticoagulated with heparin. Neutrophils were then isolated using dextran sedimentation and centrifugation with Ficoll-Hypaque (Sigma Chemical Co., St. Louis, Missouri, USA). Erythrocytes were lysed via hypotonic shock with the resulting neutrophils representing at least 97% of the cell suspension. Cell viability; estimated by trypan blue exclusion, was greater than 98%. Neutrophils were resuspended in HBSS for the experiments. […] ID. NO. 4)or α-MSH (11-13) (SEQ. ID. […] After incubation, the culture tubes were placed on ice to stop growth, and extracellular organisms were washed twice with centrifugation at 1000-x g at 4°C. A 2.5% sodium deoxycholate solution was added to the suspension, and the tubes were shaken for five minutes. Cold distilled water was then added to obtain a suspension of 10^6 cells/ml. Two 1/100 serial dilution in HBSS were made to obtain a final suspension of 100 cells/ml. One-milliliter aliquots were then dispensed on blood agar plates and incubated for 48 hours at 37°C. Colony forming units were counted at the end of the incubation period with experiments running in triplicates and repeated using blood from five different donors.
# C. albicans [2] = conditions: for ability of C albicans to form colony: Figure 3, 10^-12 to 10^-4 M, p<0.01 vs. control; for C. albicans viability: Figure 4, procedures of Example II
# Procedure: (§2) Clinical isolates of C. albicans were also obtained from the collection of the Department of Microbiology, Ospedale Maggiore di Milano. Cultures of C. albicans were maintained on Sabouraud's agar slants and periodically transferred to Sabouraud's agar plates and incubated for 48 hours at 28°C. To prepare stationary growth-phase yeast, a colony was taken from the agar plate, transferred into 30 ml of Sabouraud-dextrose broth, and incubated for 72 hours at 32°C. Cells were centrifuged at 1000xg for ten minutes, and the pellet was washed twice with distilled water. Cells were counted and suspended in Hank's balanced salt solution ("HBSS") to the desired concentration.
# (§3) Cells were then washed in cold distilled water and diluted with HBSS to a concentration of 100 organisms/ml. One-milliliter aliquots were then dispensed on blood agar plates and incubated for 48 hours at 37°C. The organism's viability was estimated from the number of colonies formed.
# (§4) The reactions were stopped after three minutes by the addition of ice cold ethanol. cAMP levels were measured in duplicates using a commercial enzyme immunoassay kit (Amersham, United Kingdom) after extraction-via the liquid-phase method according to the manufacturer's instructions. […] The effects of forskolin and ddAdo on the ability of C. albicans to form colonies were determined according to the procedures described in Example II.
# HIV-1 RNA = assay: Northern Blot analysis of HIV-1 RNA in PMA stimulated U1 cells; type: cell-based; conditions: Figure 12
# S. aureus = assay: urokinase induced growth of S. aureus; type: cell-based, Staphylococcus aureus; conditions: Figure 2; peptide 10^-6M; 500 units of urokinase, four hours at 37°C
# Procedure: as §1
# NF-κB = NF-κB binding activity in nuclear extracts of U1 cells (gel shift); type: cell-based, human
# Procedure: For the determination of specific bands, nuclear extracts were first incubated with 100 fold excess unlabeled probe for five minutes, before incubation with a labeled probe. […] The gels were dried and autoradiographed.
# C. albicans [3] = assay: cAMP content of permeabilized C. albicans (enzyme immunoassay); type: cell-based, Candida albicans; conditions: Figure 7; 10^-6 M, three minutes; same order of magnitude as equimolar forskolin
# Procedure: ID. NO. 4), (11-13) (SEQ. ID. NO. 1), or forskolin, an agent known to increase intracellular cAMP. The reactions were stopped after three minutes by the addition of ice cold ethanol. cAMP levels were measured in duplicates using a commercial enzyme immunoassay kit (Amersham, United Kingdom) after extraction-via the liquid-phase method according to the manufacturer's instructions.
# HIV-1 = conditions: Figure 11; 10^-5M; induced by IL-6, IL-10, PMA and in crowding condition
# Excerpt: Chronically HIV-1 infected promonocytic U1 cell line is an in vitro model of latent HIV infection in monocytes. These cells carry two integrated proviral copies of HIV, and constitutive expression of HIV is very low. Viral replication, however, as measured by RNA transcription , p24 antigen, or reverse transcriptase release, can be activated with different stimuli such as TNF-α, IL-6, IL-10, PMA or crowding of cells.
# Crowding was achieved by seeding U 1 cells at a density of 2x10^5/ml and maintaining them in culture at 37°C in 5% CO2 without changing media for seven days. Cultures activated with cytokines or PMA were maintained for only 48 hours. Supernatants were then removed by centrifugation and assayed for p24 antigen using commercially available ELISA kits from Cellular Products, Inc. in Buffalo, NY, USA. Reverse transcriptase releases were also measured using a commercially available kit, ELISA Retrosys RT assay from Innovagen, Lund, Sweden.
# C. albicans [4] = assay: C. albicans germ tube formation induced by horse serum; type: cell-based, Candida albicans; conditions: peptide 10^-6 M, 60 minutes at 37°C after horse serum induction
# Procedure: C. albicans from stationary phase cultures were washed twice with distilled water and suspended in HBSS to a final concentration of 2 x 10^6/ml. Hyphal growth was induced by addition of 10% inactivated horse serum (GIBCO/ BRL, Paisley, Great Britain) to yeast incubated for 45 minutes at 37°C with continuous shaking. […] The percentage of filamentous cells was evaluated under a light microscope with the aid of a hemocytometer. Experiments were run in triplicates and at least 200 cells were scored. Photomicrographs were taken with a MC100 camera attached to an Axioskop Zeiss microscope.
# C. albicans [5] = assay: C. albicans viability estimated from colonies formed; type: cell-based, Candida albicans; conditions: Figure 9; ddAdo 25, 50 and 100 x 10^-5 M for two hours, then peptide two additional hours
# Procedure: as §2, §3, §4
# [6] = rabbit, in vivo; cited from earlier work
compound,measurement,setting,value
"CC(=O)N[C@@H](CCCCN)C(=O)N1CCC[C@H]1C(=O)N[C@H](C(N)=O)C(C)C [α-MSH (11-13), KPV] (Ac-Lys-Pro-Val-NH2)",S. aureus colony formation,S. aureus (ATCC 29213),inhibited S. aureus colony formation
same,neutrophil killing of C. albicans,C. albicans [1],enhanced neutrophil killing of C. albicans
same,ability of C albicans to form colony,C. albicans [2],greatly reduced the ability of C albicans to form colony
same,growth of C. albicans,"C. albicans [2]; Figure 8, relative to control, p<0.01",significantly inhibited the growth of C. albicans
same,transcription of both spliced and unspliced HIV-1 RNA,HIV-1 RNA,inhibited
same,growth enhancing effect of urokinase on S. aureus,S. aureus,significantly countered the growth enhancing effect of urokinase
same,NF-κB activation,"NF-κB; Figure 14, TNF-α (20ng/ml) stimulated U1 cells, four hours, peptide 10^-5 M",significantly reduced NF-κB activation
same,NF-κB activation,NF-κB; resting cells,did not alter NF-κB activation
same,cAMP content in the C. albicans,C. albicans [3],enhanced cAMP content
same,reverse transcriptase release from U1 cells,HIV-1,inhibited
same,reduction in the number of filamentous cells,C. albicans [4],54-58%
"C[C@H]1O[C@@H](n2cnc3c(N)ncnc32)C[C@@H]1O [ddAdo, dideoxyadenosine]",effect of ddAdo on the growth inhibition of C. albicans by α-MSH (1-13) and (11-13),C. albicans [5],reverse the effect
CC(=O)N[C@@H](Cc1c[nH]cn1)C(=O)N[C@@H](Cc1ccccc1)C(=O)N[C@@H](CCCNC(=N)N)C(=O)N[C@@H](Cc1c[nH]c2ccccc12)C(=O)NCC(=O)N[C@@H](CCCCN)C(=O)N1CCC[C@H]1C(=O)N[C@H](C(N)=O)C(C)C [α-MSH (6-13)] (Ac-HFRWGKPV-NH2),reduction in the number of filamentous cells,C. albicans [4],approximately 50%
CC(=O)N[C@@H](CSSC[C@H](NC(C)=O)C(=O)N[C@@H](CCCCN)C(=O)N1CCC[C@H]1C(=O)N[C@H](C(N)=O)C(C)C)C(=O)N[C@@H](CCCCN)C(=O)N1CCC[C@H]1C(=O)N[C@H](C(N)=O)C(C)C [KPV dimer] (I: Ac-CKPV-NH2 / II: Ac-CKPV-NH2; disulfide I:1-II:1),S. aureus colony formation,S. aureus (ATCC 29213),inhibited S. aureus colony formation
same,ability of C albicans to form colony,C. albicans [2],greatly reduced the ability of C albicans to form colony
"[Nle^4,D-Phe^7]- α-MSH",potency in reducing fever relative to the parent peptide,[6],approximately ten times more potent
"CSCC[C@H](NC(C)=O)C(=O)N[C@@H](CCC(=O)O)C(=O)N[C@@H](Cc1c[nH]cn1)C(=O)N[C@@H](Cc1ccccc1)C(=O)N[C@@H](CCCNC(=N)N)C(=O)N[C@@H](Cc1c[nH]c2ccccc12)C(=O)NCC(N)=O [α-MSH (4-10), MEHFRWG]",inhibition of colony forming units (CFU),C. albicans [2]; 48 h,approximately 50%
9-13 sequence: α-MSH 9-13 sequence (WGKPV),antipyretic potency relative to the 11-13 sequence,[6],almost devoid of activity
8-13 sequence: α-MSH 8-13 sequence (RWGKPV),antipyretic potency relative to the 11-13 sequence,[6],greater than that of the 11-13 sequence
"ACTH (1-39): adrenocorticotropic hormone (1-39), prepared by solid-phase peptide synthesis (SYSMEHFRWGKPVGKKRRPVKVYPNGAEDESAEAFPLEF; Corticotropin; UniProt P01189 138-176, looked up) [reference compound]",C. albicans viability,C. albicans [2],did not reduce C. albicans viability
ACTH (18-39): ACTH fragment (18-39) (CLIP) [reference compound],C. albicans viability,C. albicans [2],did not reduce C. albicans viability
10-13 sequence: α-MSH(11-13) with addition of glycine to form the 10-13 sequence (GKPV),antipyretic potency relative to the 11-13 sequence,[6],slightly decreased potency
